Source: ChEMBL document CHEMBL1201862, “PubChem BioAssay data set” (2004)
Activity calls are given as the source filed them.

Legend:
Streptokinase A = biological target: T1, Streptokinase A (Streptococcus pyogenes serotype M1, UniProt P10520); assay: viability-normalized secreted streptokinase activity reduction – plasminogen activation absorbance, OD405, dose response (AID 1914); assay type: functional, Streptococcus pyogenes M1 GAS;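 also: secreted streptokinase activity via plasminogen activation per viability signal from cell pellet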
T1 sequence (P10520 whole entry): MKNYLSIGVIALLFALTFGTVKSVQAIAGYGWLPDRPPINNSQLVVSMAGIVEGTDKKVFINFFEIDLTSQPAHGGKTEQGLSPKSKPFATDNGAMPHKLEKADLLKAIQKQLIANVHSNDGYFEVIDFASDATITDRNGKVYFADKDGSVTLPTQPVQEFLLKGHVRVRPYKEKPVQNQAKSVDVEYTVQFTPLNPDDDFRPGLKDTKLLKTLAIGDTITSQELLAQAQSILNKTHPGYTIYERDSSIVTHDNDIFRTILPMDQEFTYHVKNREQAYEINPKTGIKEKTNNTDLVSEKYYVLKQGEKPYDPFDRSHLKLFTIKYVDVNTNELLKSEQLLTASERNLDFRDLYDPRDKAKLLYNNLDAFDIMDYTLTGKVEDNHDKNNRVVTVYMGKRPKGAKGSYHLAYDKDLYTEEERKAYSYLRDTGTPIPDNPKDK

[1] = Trypanosoma cruzi growth suppression in host cells – NIH3T3 host cells, beta-gal luminescence, confirmation (AID 2044); assay type: functional, cell-based;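 also: intracellular parasites grown in NIH/3T3 mouse fibroblasts as host cells; luminescent beta-galactosidase reporter signal from transgenic T. cruzi replicating inside host cells; inhibitors lower the luminescence signal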
Caspase-3 = biological target: T2, Caspase-3 (Homo sapiens, UniProt P42574); assay type: functional;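 also: Dose-response selectivity test against caspase-3 for candidate inhibitors of sentrin-specific proteases (SENPs)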
T2 sequence (P42574 whole entry): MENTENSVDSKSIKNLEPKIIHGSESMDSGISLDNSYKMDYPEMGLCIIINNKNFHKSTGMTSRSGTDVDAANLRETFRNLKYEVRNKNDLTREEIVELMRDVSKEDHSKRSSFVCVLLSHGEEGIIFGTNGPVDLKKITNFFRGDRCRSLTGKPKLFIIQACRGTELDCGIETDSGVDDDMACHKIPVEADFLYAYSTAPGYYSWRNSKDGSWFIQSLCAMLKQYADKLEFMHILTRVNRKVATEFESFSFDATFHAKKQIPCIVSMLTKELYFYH

[2] = biological target: T3, Ubiquitin-conjugating enzyme E2 N (Homo sapiens, UniProt P61088); assay type: functional
T3 sequence (P61088 whole entry): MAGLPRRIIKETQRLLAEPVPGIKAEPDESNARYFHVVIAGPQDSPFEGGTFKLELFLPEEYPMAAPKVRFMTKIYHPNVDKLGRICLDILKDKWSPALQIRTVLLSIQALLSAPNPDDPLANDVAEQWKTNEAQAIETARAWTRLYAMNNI

In the case of `CCCCCCCCCCOC(=O)Cn1c(COc2ccccc2)[n+](C)c2ccccc21`, the EC50 (Streptokinase A) is reported as > 150 µM (not active) and the EC50 [1] is reported as 1.6 µM (active).
In the case of `N#Cc1c(NC(=O)c2ccc(Br)o2)n(-c2ccccc2)c2nc3ccccc3nc12`, the IC50 (Caspase-3) is reported as 29.6 µM (active).
In the case of `CCOC(=O)c1c(-c2ccc(-c3ccccc3)cc2)csc1NC(=O)CNCCN(C)C`, the IC50 [2] is reported as 10.1 µM (active).
